This is an account of results in the Kinase Knowledgebase extract (Sharma et al. 2016).

Among the targets are PIK3CA (human) (UniProt P42336); PIK3CB (Human) (UniProt P42338); PIK3CD (Human) (UniProt O00329); PIK3CG (human) (UniProt P48736).
Holding throughout (assay): Enzyme Assay

PIK3CD (Human), sequence (O00329 whole entry, looked up): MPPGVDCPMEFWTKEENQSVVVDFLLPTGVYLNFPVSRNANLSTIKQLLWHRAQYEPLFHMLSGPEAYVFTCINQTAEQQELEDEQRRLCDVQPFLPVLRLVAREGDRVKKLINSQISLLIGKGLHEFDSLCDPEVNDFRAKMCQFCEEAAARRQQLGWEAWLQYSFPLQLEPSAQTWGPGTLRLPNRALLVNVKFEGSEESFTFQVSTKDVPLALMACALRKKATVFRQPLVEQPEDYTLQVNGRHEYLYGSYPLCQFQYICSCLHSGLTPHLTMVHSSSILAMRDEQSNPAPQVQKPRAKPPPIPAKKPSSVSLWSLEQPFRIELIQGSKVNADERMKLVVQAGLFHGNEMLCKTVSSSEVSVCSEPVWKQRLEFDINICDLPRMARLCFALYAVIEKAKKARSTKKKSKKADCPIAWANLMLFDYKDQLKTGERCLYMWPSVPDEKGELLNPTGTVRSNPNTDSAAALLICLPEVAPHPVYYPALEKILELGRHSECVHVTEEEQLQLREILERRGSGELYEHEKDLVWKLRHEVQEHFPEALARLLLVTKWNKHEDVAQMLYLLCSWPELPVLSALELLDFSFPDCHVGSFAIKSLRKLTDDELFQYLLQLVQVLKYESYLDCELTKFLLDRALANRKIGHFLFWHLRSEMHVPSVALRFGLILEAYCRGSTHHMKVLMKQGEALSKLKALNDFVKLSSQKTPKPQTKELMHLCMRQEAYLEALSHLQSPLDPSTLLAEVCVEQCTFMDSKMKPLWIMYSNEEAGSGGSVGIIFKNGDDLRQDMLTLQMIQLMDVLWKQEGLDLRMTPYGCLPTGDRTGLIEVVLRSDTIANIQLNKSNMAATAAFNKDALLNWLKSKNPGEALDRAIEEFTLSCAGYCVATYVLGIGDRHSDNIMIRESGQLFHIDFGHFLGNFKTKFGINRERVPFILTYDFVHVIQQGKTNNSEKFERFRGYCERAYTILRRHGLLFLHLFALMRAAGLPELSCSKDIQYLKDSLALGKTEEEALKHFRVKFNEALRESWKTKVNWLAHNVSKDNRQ
PIK3CA (human), sequence (P42336 whole entry, looked up): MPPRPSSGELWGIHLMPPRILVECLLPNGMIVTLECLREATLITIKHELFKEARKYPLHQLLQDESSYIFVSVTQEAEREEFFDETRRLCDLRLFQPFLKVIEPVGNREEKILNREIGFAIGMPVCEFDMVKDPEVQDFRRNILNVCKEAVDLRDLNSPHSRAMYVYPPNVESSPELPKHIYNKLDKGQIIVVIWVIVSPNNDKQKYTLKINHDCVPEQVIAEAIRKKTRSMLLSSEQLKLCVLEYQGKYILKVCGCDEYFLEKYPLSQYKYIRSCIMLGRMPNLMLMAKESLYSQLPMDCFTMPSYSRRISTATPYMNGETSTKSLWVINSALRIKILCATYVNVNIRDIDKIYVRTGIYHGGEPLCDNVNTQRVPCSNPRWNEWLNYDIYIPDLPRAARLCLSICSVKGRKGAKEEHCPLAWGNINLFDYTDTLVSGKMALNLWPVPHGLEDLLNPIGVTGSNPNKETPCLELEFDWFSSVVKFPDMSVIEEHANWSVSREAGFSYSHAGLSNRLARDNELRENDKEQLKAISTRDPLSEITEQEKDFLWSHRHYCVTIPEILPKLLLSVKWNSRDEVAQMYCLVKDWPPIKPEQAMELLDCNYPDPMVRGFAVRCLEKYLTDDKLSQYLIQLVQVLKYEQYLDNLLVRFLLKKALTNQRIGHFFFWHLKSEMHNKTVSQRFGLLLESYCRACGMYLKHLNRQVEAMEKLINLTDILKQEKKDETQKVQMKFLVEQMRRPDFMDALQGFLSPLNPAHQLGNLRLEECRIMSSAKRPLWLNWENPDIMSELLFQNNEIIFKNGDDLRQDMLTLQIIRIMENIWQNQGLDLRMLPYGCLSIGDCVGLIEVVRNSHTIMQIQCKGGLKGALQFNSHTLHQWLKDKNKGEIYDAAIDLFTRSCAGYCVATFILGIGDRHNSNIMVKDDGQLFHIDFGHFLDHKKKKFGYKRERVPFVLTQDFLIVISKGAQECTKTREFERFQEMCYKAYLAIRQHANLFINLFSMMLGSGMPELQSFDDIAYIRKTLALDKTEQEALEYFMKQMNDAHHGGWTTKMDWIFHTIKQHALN
PIK3CB (Human), sequence (P42338 whole entry, looked up): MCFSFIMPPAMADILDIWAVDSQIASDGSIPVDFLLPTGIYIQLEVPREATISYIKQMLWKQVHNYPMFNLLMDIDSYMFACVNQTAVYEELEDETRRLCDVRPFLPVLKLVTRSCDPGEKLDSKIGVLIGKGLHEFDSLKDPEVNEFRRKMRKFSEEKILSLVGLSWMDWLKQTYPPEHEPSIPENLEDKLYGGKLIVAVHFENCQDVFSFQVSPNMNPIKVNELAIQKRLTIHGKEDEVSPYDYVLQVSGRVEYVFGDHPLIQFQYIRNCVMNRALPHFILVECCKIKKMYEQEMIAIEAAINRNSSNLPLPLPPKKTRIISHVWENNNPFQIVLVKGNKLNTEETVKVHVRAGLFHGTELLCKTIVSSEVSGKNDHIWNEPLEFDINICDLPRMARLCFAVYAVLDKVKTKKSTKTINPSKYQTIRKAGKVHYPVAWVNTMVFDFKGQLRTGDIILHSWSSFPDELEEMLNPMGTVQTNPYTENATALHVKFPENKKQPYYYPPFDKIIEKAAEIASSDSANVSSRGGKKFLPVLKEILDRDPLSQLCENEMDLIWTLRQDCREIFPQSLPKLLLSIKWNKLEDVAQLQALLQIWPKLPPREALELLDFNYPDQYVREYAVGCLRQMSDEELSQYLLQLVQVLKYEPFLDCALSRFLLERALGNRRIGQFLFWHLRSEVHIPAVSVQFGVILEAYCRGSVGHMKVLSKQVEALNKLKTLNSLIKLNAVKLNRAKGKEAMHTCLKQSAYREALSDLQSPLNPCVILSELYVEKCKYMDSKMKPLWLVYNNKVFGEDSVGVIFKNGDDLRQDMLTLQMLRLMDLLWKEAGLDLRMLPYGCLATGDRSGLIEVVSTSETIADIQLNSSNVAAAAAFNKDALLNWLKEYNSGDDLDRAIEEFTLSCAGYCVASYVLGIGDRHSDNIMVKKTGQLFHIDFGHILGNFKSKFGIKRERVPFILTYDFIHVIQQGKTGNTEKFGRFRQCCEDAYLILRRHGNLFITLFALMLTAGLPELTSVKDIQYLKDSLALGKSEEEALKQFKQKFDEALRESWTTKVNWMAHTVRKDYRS
PIK3CG (human), sequence (P48736 whole entry, looked up): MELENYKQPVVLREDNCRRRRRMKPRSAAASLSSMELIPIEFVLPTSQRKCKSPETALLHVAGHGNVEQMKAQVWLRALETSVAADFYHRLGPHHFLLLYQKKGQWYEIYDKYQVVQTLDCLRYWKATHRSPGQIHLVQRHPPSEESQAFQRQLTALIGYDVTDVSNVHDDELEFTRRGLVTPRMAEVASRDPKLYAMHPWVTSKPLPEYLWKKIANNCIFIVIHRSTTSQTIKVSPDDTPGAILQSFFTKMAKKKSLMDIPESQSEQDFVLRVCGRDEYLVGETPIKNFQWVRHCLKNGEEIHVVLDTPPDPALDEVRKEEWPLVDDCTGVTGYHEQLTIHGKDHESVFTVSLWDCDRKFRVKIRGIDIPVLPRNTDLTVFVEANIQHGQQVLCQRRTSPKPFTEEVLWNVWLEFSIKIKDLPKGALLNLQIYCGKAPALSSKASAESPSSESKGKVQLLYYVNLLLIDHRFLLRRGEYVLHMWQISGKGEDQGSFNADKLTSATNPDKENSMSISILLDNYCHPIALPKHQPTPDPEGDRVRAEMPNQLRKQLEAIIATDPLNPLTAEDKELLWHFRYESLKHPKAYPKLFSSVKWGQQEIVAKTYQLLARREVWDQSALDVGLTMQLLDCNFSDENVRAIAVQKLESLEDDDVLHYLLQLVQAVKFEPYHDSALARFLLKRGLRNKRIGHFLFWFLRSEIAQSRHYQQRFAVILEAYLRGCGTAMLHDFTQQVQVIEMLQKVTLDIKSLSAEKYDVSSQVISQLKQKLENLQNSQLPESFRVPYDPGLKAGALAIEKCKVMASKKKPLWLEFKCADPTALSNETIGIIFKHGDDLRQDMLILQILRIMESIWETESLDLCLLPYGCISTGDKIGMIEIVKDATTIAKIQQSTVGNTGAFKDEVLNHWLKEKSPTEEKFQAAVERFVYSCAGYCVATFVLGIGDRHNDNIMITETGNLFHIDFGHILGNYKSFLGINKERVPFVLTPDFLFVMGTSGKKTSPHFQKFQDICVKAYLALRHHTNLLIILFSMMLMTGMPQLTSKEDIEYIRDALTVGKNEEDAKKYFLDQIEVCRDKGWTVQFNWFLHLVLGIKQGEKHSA

With `Nc1cc(C(F)(F)F)c(-c2cc(N3CCN(c4ccccc4)C3=O)nc(N3CCOCC3)n2)cn1`, the 50% inhibitory concentration (IC50) is 107 nM against PIK3CA (human), 192 nM against PIK3CB (Human), 153 nM against PIK3CD (Human) and 8790 nM against PIK3CG (human).

At PIK3CA (human), `C[C@@H](O)C[C@H]1OC(=O)N(c2cc(-c3cnc(N)nc3C(F)(F)F)nc(N3CCOCC3)n2)[C@H]1C` displayed an IC50 of 5 nM.

With `Nc1cc(C(F)(F)F)c(-c2cc(N3CCCCC3=O)nc(N3CCOCC3)n2)cn1`, the 50% inhibitory concentration (IC50) against PIK3CA (human) amounted to 125 nM; at PIK3CB (Human), 214 nM; against PIK3CD (Human) it was 296 nM; against PIK3CG (human), 5270 nM.

In the case of `Nc1ncc(-c2cc(N3C(=O)O[C@H]4[C@H](O)CC[C@H]43)nc(N3CCOCC3)n2)c(C(F)(F)F)n1`, the IC50 against PIK3CA (human) came to 6 nM; on PIK3CB (Human), 48 nM; on PIK3CG (human), 145 nM.

Regarding `C[C@H]1[C@@H](CC(C)(C)O)OC(=O)N1c1cc(-c2cnc(N)nc2C(F)(F)F)nc(N2CCOCC2)n1.C[C@H]1[C@H](CC(C)(C)O)OC(=O)N1c1cc(-c2cnc(N)nc2C(F)(F)F)nc(N2CCOCC2)n1`, the IC50 amounted to 5 nM at PIK3CA (human), 124 nM against PIK3CB (Human) and 290 nM against PIK3CG (human).

As for `Nc1cc(C(F)(F)F)c(-c2cc(N3CCC(=O)CC3)nc(N3CCOCC3)n2)cn1`, the half-maximal inhibitory concentration (IC50) against PIK3CA (human) is 359 nM; on PIK3CB (Human) it was 1250 nM; on PIK3CD (Human) it was 692 nM; at PIK3CG (human), 4320 nM.

As to `C[C@H](O)C[C@H]1OC(=O)N(c2cc(-c3cnc(N)nc3C(F)(F)F)nc(N3CCOCC3)n2)[C@H]1C`, the values for the concentration for half-maximal inhibition (IC50) at PIK3CA (human), at PIK3CB (Human) and at PIK3CG (human) were 5 nM, 11 nM and 205 nM, respectively.

On to `Nc1ncc(-c2cc(N3C(=O)OC[C@@H]3CO)nc(N3CCOCC3)n2)c(C(F)(F)F)n1`, for which the IC50 against PIK3CA (human) was 21 nM; at PIK3CB (Human), 6 nM; at PIK3CD (Human), 17 nM; against PIK3CG (human), 529 nM.

As to `Nc1cc(C(F)(F)F)c(-c2cc(N3CCS(=O)(=O)CC3)nc(N3CCOCC3)n2)cn1`, the half-inhibitory concentration (IC50) was found to be 592 nM against PIK3CA (human), 2750 nM at PIK3CB (Human), 2320 nM against PIK3CD (Human) and 4630 nM at PIK3CG (human).

For `Nc1cc(C(F)(F)F)c(-c2cc(N3CCOC(c4ccccc4)C3)nc(N3CCOCC3)n2)cn1` (stereo not given), the 50% inhibitory concentration (IC50) was found to be 134 nM against PIK3CA (human), 875 nM at PIK3CB (Human) and 1040 nM at PIK3CD (Human).

In the case of `Nc1ncc(-c2cc(N3CCOCC3)nc(N3CCOCC3)n2)c(C(F)(F)F)n1`, the 50% inhibitory concentration (IC50) on PIK3CD (Human) turned out to be 80 nM; at PIK3CG (human) it was 464 nM.
